# Results from patent publication US5668152A, “Protein kinase C inhibitors” (priority 1995, dated 1997).
# Where two headings read alike, the source gives them in different places.
# Assays:
# [1] = target: T1, protein kinase C zeta (Homo sapiens, UniProt Q05513); assay: PKC Enzyme assay, zeta isozyme; format: biochemical
# T1 sequence (Q05513 1-592): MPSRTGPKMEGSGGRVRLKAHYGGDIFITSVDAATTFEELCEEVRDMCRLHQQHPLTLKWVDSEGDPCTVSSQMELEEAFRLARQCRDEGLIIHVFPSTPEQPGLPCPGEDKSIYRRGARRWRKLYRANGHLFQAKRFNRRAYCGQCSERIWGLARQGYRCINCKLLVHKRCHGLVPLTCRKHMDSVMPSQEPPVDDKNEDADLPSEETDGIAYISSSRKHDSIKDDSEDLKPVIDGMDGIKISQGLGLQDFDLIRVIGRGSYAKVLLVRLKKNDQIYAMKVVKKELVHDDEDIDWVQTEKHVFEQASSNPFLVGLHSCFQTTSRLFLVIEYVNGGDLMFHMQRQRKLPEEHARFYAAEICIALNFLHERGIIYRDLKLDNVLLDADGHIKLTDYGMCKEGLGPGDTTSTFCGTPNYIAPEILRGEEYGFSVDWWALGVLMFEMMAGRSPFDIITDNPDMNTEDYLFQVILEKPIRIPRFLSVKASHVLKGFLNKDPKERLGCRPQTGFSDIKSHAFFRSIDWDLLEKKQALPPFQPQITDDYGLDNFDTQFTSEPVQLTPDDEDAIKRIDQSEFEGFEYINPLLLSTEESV
# Procedure: (§1) PKC enzymes=alpha, beta I, beta II, gamma, delta, epsilon, eta and zeta.
# (§2) Assay components in a total volume of 250 μL are the following:
# (§3) Vesicles consisting of 120 μg/mL phosphatidylserine (Avanti Polar Lipids) and sufficient diacylglycerol (Avanti Polar Lipids) to activate the enzyme to maximum activity in 20 mM HEPES buffer (Sigma, St. Louis, Mo.), pH 7.5, 940 μM calcium chloride (Sigma, St. Louis, Mo.) for assaying the alpha, beta I, beta II and gamma enzyme only, 1 mM EGTA for all the enzymes, 10 mM magnesium chloride (Sigma, St. Louis, Mo.) and 30 μM (gamma-32P) ATP (DuPont). For all the enzymes either histone type HL (Worthington) or myelin basic protein is used as substrate. The assay is started by addition of protein kinase C enzyme incubated at 30° C. for 10 minutes and stopped by adding 0.5 mL of cold trichloroacetic acid (Amresco) followed by 100 μL of 1 mg/mL bovine serum albumin (Sigma, St. Louis, Mo.). The precipitate is collected by vacuum filtration on glass fiber filters employing a TOMTEC™ filtration system and quantified by counting in a beta scintillation counter.
# [2] = target: protein kinase C beta-2 (Homo sapiens, UniProt P05771); assay: PKC Enzyme assay, beta II isozyme; format: biochemical
# Procedure: as §1, §2, §3
# [3] = target: protein kinase C eta (Homo sapiens, UniProt P24723); assay: PKC Enzyme assay, eta isozyme; format: biochemical
# Procedure: as §1, §2, §3
# [4] = target: protein kinase C alpha (Homo sapiens, UniProt P17252); assay: PKC Enzyme assay, alpha isozyme; format: biochemical
# Procedure: as §1, §2, §3
# [5] = target: protein kinase C gamma (Homo sapiens, UniProt P05129); assay: PKC Enzyme assay, gamma isozyme; format: biochemical
# Procedure: as §1, §2, §3
# [6] = target: T2, protein kinase C epsilon (Homo sapiens, UniProt Q02156); assay: PKC Enzyme assay, epsilon isozyme; format: biochemical
# T2 sequence (Q02156 1-737): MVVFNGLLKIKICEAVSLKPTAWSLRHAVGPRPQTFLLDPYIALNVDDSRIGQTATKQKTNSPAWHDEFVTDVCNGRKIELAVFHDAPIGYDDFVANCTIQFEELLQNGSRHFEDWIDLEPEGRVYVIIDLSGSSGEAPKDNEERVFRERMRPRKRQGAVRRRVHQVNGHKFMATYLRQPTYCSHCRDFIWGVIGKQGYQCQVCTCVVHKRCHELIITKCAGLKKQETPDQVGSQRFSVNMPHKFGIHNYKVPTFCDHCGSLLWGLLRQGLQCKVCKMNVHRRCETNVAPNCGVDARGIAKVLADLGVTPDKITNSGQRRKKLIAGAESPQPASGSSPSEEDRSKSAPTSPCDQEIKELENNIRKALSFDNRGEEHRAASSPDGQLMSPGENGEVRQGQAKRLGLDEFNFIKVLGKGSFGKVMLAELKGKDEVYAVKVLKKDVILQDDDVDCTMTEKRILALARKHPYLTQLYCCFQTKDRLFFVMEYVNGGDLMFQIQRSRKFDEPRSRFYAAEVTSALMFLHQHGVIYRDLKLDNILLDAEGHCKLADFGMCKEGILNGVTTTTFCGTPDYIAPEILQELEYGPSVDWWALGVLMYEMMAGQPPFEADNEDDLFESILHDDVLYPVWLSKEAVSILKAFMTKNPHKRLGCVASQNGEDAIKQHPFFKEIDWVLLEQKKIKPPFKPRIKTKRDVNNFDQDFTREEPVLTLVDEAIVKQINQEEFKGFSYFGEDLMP
# Procedure: as §1, §2, §3
# [7] = target: protein kinase C delta (Homo sapiens, UniProt Q05655); assay: biochemical
# Procedure: as §1, §2, §3
# [8] = target: protein kinase C beta-1 (Homo sapiens, UniProt P05771); assay: PKC Enzyme assay, beta I isozyme; format: biochemical
# Procedure: as §1, §2, §3
# [9] = PKC zeta, 30 μM ATP, 30° C., 10 minutes, read-out: IC50 ζ
# [10] = PKC beta-2, 30 μM ATP, 30° C., 10 minutes, read-out: IC50 β2
# [11] = PKC eta, 30 μM ATP, 30° C., 10 minutes, read-out: IC50 η
# [12] = PKC alpha, 30 μM ATP, 30° C., 10 minutes, read-out: IC50 α
# [13] = PKC gamma, 30 μM ATP, 30° C., 10 minutes, read-out: IC50 γ
# [14] = PKC epsilon, 30 μM ATP, 30° C., 10 minutes, read-out: IC50 ε
# [15] = PKC delta, 30 μM ATP, 30° C., 10 minutes, read-out: IC50 δ
# [16] = PKC beta-1, 30 μM ATP, 30° C., 10 minutes, read-out: IC50 β1
# Sequence of protein kinase C eta (P24723 whole entry): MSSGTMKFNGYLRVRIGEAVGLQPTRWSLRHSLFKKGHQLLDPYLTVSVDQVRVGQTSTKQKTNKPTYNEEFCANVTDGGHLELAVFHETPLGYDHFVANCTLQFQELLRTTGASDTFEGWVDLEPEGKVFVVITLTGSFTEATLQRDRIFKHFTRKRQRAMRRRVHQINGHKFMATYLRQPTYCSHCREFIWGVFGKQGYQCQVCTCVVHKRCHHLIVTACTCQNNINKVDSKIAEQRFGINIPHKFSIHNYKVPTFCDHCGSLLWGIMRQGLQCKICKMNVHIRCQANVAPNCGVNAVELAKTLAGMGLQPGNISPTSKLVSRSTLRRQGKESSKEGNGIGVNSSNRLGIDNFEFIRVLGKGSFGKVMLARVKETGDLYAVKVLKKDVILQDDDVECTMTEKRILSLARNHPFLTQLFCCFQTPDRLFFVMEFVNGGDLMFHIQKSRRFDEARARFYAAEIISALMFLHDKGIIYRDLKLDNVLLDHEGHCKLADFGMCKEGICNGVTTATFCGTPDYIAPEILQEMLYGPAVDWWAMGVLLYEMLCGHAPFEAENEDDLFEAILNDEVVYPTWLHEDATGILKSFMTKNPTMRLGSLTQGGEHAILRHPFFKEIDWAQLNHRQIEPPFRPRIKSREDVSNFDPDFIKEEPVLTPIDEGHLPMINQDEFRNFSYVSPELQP
# Sequence of protein kinase C delta (Q05655 whole entry): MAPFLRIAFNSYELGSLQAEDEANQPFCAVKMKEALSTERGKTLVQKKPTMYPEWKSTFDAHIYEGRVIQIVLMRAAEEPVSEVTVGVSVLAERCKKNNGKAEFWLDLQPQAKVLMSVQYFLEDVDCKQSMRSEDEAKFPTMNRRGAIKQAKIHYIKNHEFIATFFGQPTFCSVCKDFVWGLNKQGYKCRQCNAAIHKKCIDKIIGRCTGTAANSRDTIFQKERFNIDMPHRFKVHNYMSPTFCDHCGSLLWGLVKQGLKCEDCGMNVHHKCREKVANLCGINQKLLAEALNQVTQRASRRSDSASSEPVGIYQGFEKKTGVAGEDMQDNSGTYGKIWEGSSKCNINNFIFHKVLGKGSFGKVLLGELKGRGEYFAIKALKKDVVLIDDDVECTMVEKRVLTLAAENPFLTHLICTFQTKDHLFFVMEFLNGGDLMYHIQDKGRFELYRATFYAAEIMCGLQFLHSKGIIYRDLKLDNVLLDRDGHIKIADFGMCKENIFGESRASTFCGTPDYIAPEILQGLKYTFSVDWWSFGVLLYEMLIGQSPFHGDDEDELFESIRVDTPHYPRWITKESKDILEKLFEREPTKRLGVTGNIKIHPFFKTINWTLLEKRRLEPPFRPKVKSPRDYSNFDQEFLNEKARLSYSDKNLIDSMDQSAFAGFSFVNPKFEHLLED
# Sequence of protein kinase C beta-2 (P05771 1-673 isoform P05771-2): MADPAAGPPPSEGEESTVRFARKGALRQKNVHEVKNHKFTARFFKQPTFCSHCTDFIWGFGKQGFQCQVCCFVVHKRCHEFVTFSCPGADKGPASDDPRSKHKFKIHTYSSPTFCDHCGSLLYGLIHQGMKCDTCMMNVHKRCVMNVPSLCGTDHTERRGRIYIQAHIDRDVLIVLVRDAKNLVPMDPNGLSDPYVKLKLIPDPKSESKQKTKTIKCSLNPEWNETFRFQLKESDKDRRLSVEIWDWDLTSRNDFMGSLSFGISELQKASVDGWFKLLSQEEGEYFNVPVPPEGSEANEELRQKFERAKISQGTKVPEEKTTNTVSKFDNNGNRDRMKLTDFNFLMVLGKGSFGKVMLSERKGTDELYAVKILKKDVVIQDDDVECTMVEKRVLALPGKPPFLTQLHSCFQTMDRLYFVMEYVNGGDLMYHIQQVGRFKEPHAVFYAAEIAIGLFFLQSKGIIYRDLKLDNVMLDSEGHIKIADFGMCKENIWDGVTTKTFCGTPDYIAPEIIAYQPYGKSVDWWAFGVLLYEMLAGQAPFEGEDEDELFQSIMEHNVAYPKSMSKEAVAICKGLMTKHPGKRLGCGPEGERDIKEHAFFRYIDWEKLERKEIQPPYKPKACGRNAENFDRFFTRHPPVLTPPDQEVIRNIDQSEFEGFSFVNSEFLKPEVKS
# Sequence of protein kinase C beta-1 (P05771 whole entry): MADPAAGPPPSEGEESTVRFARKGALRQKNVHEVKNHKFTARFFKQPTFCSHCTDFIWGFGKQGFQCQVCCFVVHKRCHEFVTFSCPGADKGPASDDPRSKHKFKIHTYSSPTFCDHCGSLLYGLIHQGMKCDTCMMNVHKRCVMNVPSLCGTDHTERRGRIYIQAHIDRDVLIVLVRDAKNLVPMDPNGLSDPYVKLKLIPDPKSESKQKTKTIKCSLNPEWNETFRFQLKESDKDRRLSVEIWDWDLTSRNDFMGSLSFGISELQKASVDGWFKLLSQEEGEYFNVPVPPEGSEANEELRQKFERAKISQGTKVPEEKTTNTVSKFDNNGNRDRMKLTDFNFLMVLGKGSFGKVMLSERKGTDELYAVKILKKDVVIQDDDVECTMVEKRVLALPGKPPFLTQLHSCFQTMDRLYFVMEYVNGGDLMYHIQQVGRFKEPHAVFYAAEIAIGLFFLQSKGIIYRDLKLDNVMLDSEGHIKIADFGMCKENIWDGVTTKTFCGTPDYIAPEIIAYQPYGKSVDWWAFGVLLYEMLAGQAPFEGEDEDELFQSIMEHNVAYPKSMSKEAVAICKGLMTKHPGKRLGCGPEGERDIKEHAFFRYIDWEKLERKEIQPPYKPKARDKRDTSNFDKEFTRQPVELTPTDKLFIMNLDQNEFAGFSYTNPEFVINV
"IC50 [1, 9] [nM]","IC50 [2, 10] [nM]","IC50 [3, 11] [nM]","IC50 [4, 12] [nM]","IC50 [5, 13] [nM]","IC50 [6, 14] [nM]","IC50 [7, 15] [nM]","IC50 [8, 16] [nM]",SMILES,IC50 [1] [nM],IC50 [2] [nM],IC50 [3] [nM],IC50 [4] [nM],IC50 [5] [nM],IC50 [6] [nM],IC50 [7] [nM],IC50 [8] [nM]
20000,20,100,300,1000,400,400,9,"CC(=O)N1CCC(n2cc(C3=C(c4cn(C)c5ccccc45)C(=O)NC3=O)c3ccccc32)CC1 [Example 37, 3-(1-(1-Acetyl-piperidin-4-yl]-indol-3-yl)-4-(1-methyl-indol-3-yl)-pyrrole-2,5-dione]",–,–,–,–,–,–,–,–
> 100000,50,2000,1000,5000,400,3000,50,CCOC(=O)CN1CCC(n2cc(C3=C(c4cn(C)c5ccccc45)C(=O)NC3=O)c3ccccc32)CC1 [Example 38],–,–,–,–,–,–,–,–
15000,100,2000,3000,4000,1000,4000,200,"CN(C)CCCN1CCC(n2cc(C3=C(c4cn(C)c5ccccc45)C(=O)NC3=O)c3ccccc32)CC1 [Example 41, 3-{1-[1-N-(3-N,N-(Dimethylamino)propyl)-piperidin-4-yl]-indol-3-yl}-4-(1-methyl-indol-3-yl)-1H-pyrrole-2,5-dione]",–,–,–,–,–,–,–,–
4000,10,50,400,500,400,400,20,"CN1CCC(n2cc(C3=C(c4cn(C)c5ccccc45)C(=O)NC3=O)c3ccccc32)CC1 [Example 42, 3-[1-(1-Methyl-piperidin-4-yl)-indol-3-yl]-4-(1-methyl-indol-3-yl)-1H-pyrrole-2,5-dione]",–,–,–,–,–,–,–,–
4800,5,5,42,82,360,100,5,"Cn1cc(C2=C(c3cn(C4CCN(C(=N)N)CC4)c4ccccc34)C(=O)NC2=O)c2ccccc21 [Example 44, 3-[1-(1-carboxamidine-piperidin-4-yl)-indol-3-yl)-4-(1-methyl-indol-3-yl)-1-pyrrole-2,5-dione]",–,–,–,–,–,–,–,–
> 100000,40,2000,2000,5000,2000,2000,50,Cn1cc(C2=C(c3cn(C4CCN(c5ccccn5)CC4)c4ccccc34)C(=O)NC2=O)c2ccccc21 [Example 48],–,–,–,–,–,–,–,–
3000,20,100,300,600,500,500,30,O=C1NC(=O)C(c2cn(C3CCNCC3)c3ccccc23)=C1c1c[nH]c2ccccc12 [Example 50],–,–,–,–,–,–,–,–
5000,10,40,200,500,50,400,20,CN1CCC(n2cc(C3=C(c4c[nH]c5ccccc45)C(=O)NC3=O)c3ccccc32)CC1 [Example 51],–,–,–,–,–,–,–,–
51000,230,1700,3200,4300,6600,3500,410,Cn1cc(C2=C(c3cn(CCCCOC4CC(O)C(CN)O4)c4ccccc34)C(=O)NC2=O)c2ccccc21 (stereo not shown) [Example 53],–,–,–,–,–,–,–,–

# More lines, now with the values behind:
SMILES,"IC50 [1, 9] [nM]","IC50 [2, 10] [nM]","IC50 [3, 11] [nM]","IC50 [4, 12] [nM]","IC50 [5, 13] [nM]","IC50 [6, 14] [nM]","IC50 [7, 15] [nM]","IC50 [8, 16] [nM]",IC50 [1] [nM],IC50 [2] [nM],IC50 [3] [nM],IC50 [4] [nM],IC50 [5] [nM],IC50 [6] [nM],IC50 [7] [nM],IC50 [8] [nM]
O=C1NC(=O)C(c2cn(CCCO)c3ccccc23)=C1c1c[nH]c2ccccc12 [Example 11],16000,46,100,450,1100,680,410,39,–,–,–,–,–,–,–,–
Cn1cc(C2=C(c3c[nH]c4ccccc34)C(=O)NC2=O)c2ccccc21 [Example 12],8000,86,520,1210,1250,900,1000,81,–,–,–,–,–,–,–,–
O=C1NC(=O)C(c2cn(Cc3ccccc3)c3ccccc23)=C1c1c[nH]c2ccccc12 [Example 14],34000,1140,4500,13500,25000,30000,8800,1150,–,–,–,–,–,–,–,–
Cc1c(C2=C(c3cn(CN(C)C)c4ccccc34)C(=O)NC2=O)c2ccccc2n1CCCN(C)C [Example 15],37000,100,1300,4900,4000,5500,3400,140,–,–,–,–,–,–,–,–
Cc1c(C2=C(c3c(C)n(CN(C)C)c4ccccc34)C(=O)NC2=O)c2ccccc2n1CCCN(C)C [Example 16],40000,600,5600,39000,9200,10000,8000,700,–,–,–,–,–,–,–,–
"Cn1cc(C2=C(c3cn(C4CCN(CC5CC5)CC4)c4ccccc34)C(=O)NC2=O)c2ccccc21 [Example 39, 3-[1-N-(1-N-(Cyclopropylmethylene)-piperidin-4-yl)-indol-3-yl]-4-(1-N-(methyl)-indol-3-yl)-1H-pyrrole-2,5-dione]",9000,10,50,300,400,900,400,30,–,–,–,–,–,–,–,–
"Cn1cc(C2=C(c3cn(C4CCN(CC(F)(F)C(F)(F)C(F)(F)F)CC4)c4ccccc34)C(=O)NC2=O)c2ccccc21 [Example 46, 3-{1-[1-(2,2,3,3,4,4,4-Heptafluoro-butyl)-piperidin-4-yl]-indol-3-yl}-4-(1-methyl-indol-3-yl)-1H-pyrrole-2,5-dione]",–,–,–,–,–,–,–,–,> 100000,460,> 100000,> 100000,> 100000,> 100000,> 100000,3000
Cn1cc(C2=C(c3cn(C4CCN(Cc5ccccc5)CC4)c4ccccc34)C(=O)NC2=O)c2ccccc21 [Example 47],–,50,500,–,–,–,–,–,52000,–,–,1000,4000,3000,2000,100
